Test system: citrulline-containing peptides / affinity-purified ACPA IgG
Assay: ELISA cross-reaction of affinity-purified ACPA IgG fractions with Cit-peptides
Format: binding, human
Conditions: ACPA 0.1 mg/mL, OD ratio Cit/Arg peptide
Excerpt: To see if the affinity-purified anti-peptide antibodies were able to recognize a different peptide, ELISA plates were coated with the individual peptides directly (fibrin, enolase, and EBNA-2) or indirectly, using neutravidin-coated plates and biotinylated peptides (filaggrin, collagen II, or vimentin) and the binding of the affinity-purified IgG fractions was monitored (Figure 2).
Figure 2 Reactivity of affinity-purified IgG fractions with the relevant and irrelevant citrulline-containing peptides. OD ratios that are OD with Cit/OD with Arg-containing peptides are shown. Cut-off values for each Cit- and Arg-containing peptide pair were calculated from OD indexes of 120 healthy samples (the means of OD indexes + 2 × SD). These were below 1.5 for all peptides. Results of a typical experiment.
ELISA was used to determine serum IgG ACPA concentrations and to test ACPA cross-reactions. The biotinylated, citrulline- or arginine-containing filaggrin19, vimentin, collagen II and the multi-epitope peptides were added at 1 µg/mL to the Medisorp plates (Greiner Bio-One GmbH, Kremsmünster, Germany) pre-coated with 5 µg/mL Neutravidin (Pierce Biotechnology, Rockford, IL, USA) overnight, at 4 °C, and then the plates were incubated for 1 h at 37 °C. […]
Serum samples were diluted 1:100. […] Plates were read at 450 nm with THERMO Multiscan EX ELISA-reader.

For “H-Ttds-AXAXGSGSGXGXG-NH2 [multi-epitope, novel peptide consisting of two-two copies of Ala-Cit and Cit-Gly motifs separated with a neutral spacer, SGSG]”, the “binding of peptide to other affinity-purified ACPA IgG” value was “bound to almost all other ACPA IgG, fibrin β was the exception”.
